Laboratory results from PubChem BioAssay (NCI).
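Five compound concentrations were applied to cells in 96-well plates for 48 hours; endpoints were derived by simple linear interpolation of the resulting dose-response curve. The concentration for 50% growth inhibition is given as GI50. At the TGI there is no net growth.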

How the values were obtained:
Assay in all cases: NCI anticancer screen, dose series, 48 h
[1] = test system: SF-539 CNS
[2] = test system: M14 melanoma
[3] = test system: SK-OV-3 ovarian
[4] = test system: SW-620 colon
[5] = test system: PC-3 prostate
[6] = test system: MCF7 breast
[7] = test system: MALME-3M melanoma
[8] = test system: NCI-H226 lung
[9] = test system: SF-295 CNS
[10] = test system: NCI-H522 lung
[11] = test system: HOP-92 NSCLC
[12] = test system: RXF 393 renal
[13] = test system: SNB-19 CNS
[14] = test system: LOX IMVI melanoma
[15] = test system: SK-MEL-2 melanoma
[16] = test system: ACHN renal
[17] = test system: MOLT-4 leukemia
[18] = test system: HS 578T breast
[19] = test system: MDA-MB-468 breast
[20] = test system: NCI/ADR-RES ovarian
[21] = test system: MDA-MB-231 breast
[22] = test system: SR leukemia
[23] = test system: CAKI-1 renal
[24] = test system: DU-145 prostate
[25] = test system: HOP-62 NSCLC
[26] = test system: SF-268 CNS
[27] = test system: NCI-H460 lung
[28] = test system: IGROV1 ovarian
[29] = test system: SK-MEL-28 melanoma
[30] = test system: KM12 colon
[31] = test system: TK-10 renal
[32] = test system: A498 renal
[33] = test system: UACC-62 melanoma
[34] = test system: BT-549 breast
[35] = test system: SN12C renal
[36] = test system: OVCAR-4 ovarian
[37] = test system: NCI-H23 lung
[38] = test system: COLO 205 colon
[39] = test system: K-562 leukemia
[40] = test system: HCT-15 colon
[41] = test system: UO-31 renal
[42] = test system: EKVX NSCLC
[43] = test system: HCC-2998 colon
[44] = test system: OVCAR-5 ovarian
[45] = test system: HL-60(TB) leukemia
[46] = test system: SK-MEL-5 melanoma
[47] = test system: SNB-75 CNS
[48] = test system: UACC-257 melanoma
[49] = test system: T-47D breast

O=C(CSc1nnc(-c2ccc3nc(-c4ccc(Cl)cc4)[nH]c3c2)o1)Nc1ccc(Cl)cc1
GI50 [1]: 1.55 µM | TGI [1]: 2.9 µM | GI50 [2]: 2.11 µM | TGI [2]: 5.01 µM | GI50 [3]: 3.89 µM | TGI [3]: 14.1 µM | GI50 [4]: 2.18 µM | TGI [4]: 5.72 µM | GI50 [5]: 2.44 µM | TGI [5]: 7.99 µM | GI50 [6]: 1.76 µM | TGI [6]: 4.08 µM | GI50 [7]: 1.86 µM | TGI [7]: 4.07 µM | GI50 [8]: 1.72 µM | TGI [8]: 4.33 µM | GI50 [9]: 1.64 µM | TGI [9]: 3.14 µM | GI50 [10]: 2.05 µM | TGI [10]: 5.61 µM | GI50 [11]: 2.33 µM | TGI [11]: 6.86 µM | GI50 [12]: 1.59 µM | TGI [12]: 3.7 µM | GI50 [13]: 2.04 µM | TGI [13]: 4.52 µM | GI50 [14]: 1.54 µM | TGI [14]: 2.88 µM | GI50 [15]: 2.53 µM | TGI [15]: 7.08 µM | GI50 [16]: 1.51 µM | TGI [16]: 3.19 µM | GI50 [17]: 2.6 µM | TGI [17]: > 100 µM | GI50 [18]: 2.43 µM | TGI [18]: 8.1 µM | GI50 [19]: 2.41 µM | TGI [19]: 6.19 µM | GI50 [20]: 2.55 µM | TGI [20]: 6.92 µM | GI50 [21]: 1.66 µM | TGI [21]: 3.11 µM | GI50 [22]: 3.6 µM | TGI [22]: > 100 µM | GI50 [23]: 1.62 µM | TGI [23]: 3.79 µM | GI50 [24]: 2.53 µM | TGI [24]: 6.35 µM | GI50 [25]: 2.3 µM | TGI [25]: 5.46 µM | GI50 [26]: 3.18 µM | TGI [26]: 77.9 µM | GI50 [27]: 1.77 µM | TGI [27]: 3.38 µM | GI50 [28]: 2.24 µM | TGI [28]: 7.98 µM | GI50 [29]: 1.94 µM | TGI [29]: 4.22 µM | GI50 [30]: 2.78 µM | TGI [30]: 27 µM | GI50 [31]: 10.3 µM | TGI [31]: 26.5 µM | GI50 [32]: 12.3 µM | TGI [32]: 26.4 µM | GI50 [33]: 1.56 µM | TGI [33]: 3.37 µM | GI50 [34]: 2.33 µM | TGI [34]: 5 µM | GI50 [35]: 1.69 µM | TGI [35]: 3.19 µM | GI50 [36]: 2.61 µM | TGI [36]: 7.73 µM | GI50 [37]: 1.65 µM | TGI [37]: 3.24 µM | GI50 [38]: 3.52 µM | TGI [38]: 28.5 µM | GI50 [39]: 2.89 µM | TGI [39]: > 100 µM | GI50 [40]: 1.37 µM | TGI [40]: 3.18 µM | GI50 [41]: 1.61 µM | TGI [41]: 4.02 µM | GI50 [42]: 2.04 µM | TGI [42]: 6.43 µM | GI50 [43]: 3.63 µM | TGI [43]: 14.4 µM | GI50 [44]: 8.68 µM | TGI [44]: 23.9 µM | GI50 [45]: 2.43 µM | TGI [45]: 7.59 µM | GI50 [46]: 1.97 µM | TGI [46]: 4.2 µM | GI50 [47]: 1.75 µM | TGI [47]: 5.58 µM | GI50 [48]: 2.4 µM | TGI [48]: 6.24 µM | GI50 [49]: 7.07 µM | TGI [49]: 68.2 µM
